{"source": "patent US8119689B2", "about": "“Adjuvants on the basis of bisacyloxypropylcystene conjugates and derivatives and their uses in pharmaceutical compositions” (Helmholtz-Zentrum Fuer Infektionsforschung GmbH, priority 2005, dated 2012)", "key": {"[1]": {"tested_on": "β-gal antigen-specific IgG isotypes", "experiment": "β-gal-specific IgG isotypes in sera of immunized mice (isotype ELISA)", "type": "in vivo", "conditions": "after intranasal and after parenteral administration", "procedure": "FIG. 8: FIG. 8 provides the analysis of beta-Gal specific IgG isotypes in sera of immunized mice. Anti-beta-Gal specific IgG isotypes of the groups immunized with PBS, (control) beta-Gal+either BPPcysGlyc4armPEG or BPPcysPEG (FIG. 8A) or BPPcysAda or Ada alone (FIG. 8B), or beta-Gal alone of mice immunized by the i.n. or s.c. route were determined by ELISA. Results are expressed as end point titers. IgG titers represent the mean of five animals per experimental group. Differences were statistically significant at p<0.05 (*) with respect to mice receiving antigen alone. One representative out of four independent experiments is shown. SEM is indicated by vertical lines.\nIsotyp ELISA: 96-well Nunc-Immuno MaxiSorp assay plates (Nunc, Roskilde, Denmark) were coated with 100 μl of β-gal (Boehringer, Mannheim, Germany) at 5 μg/ml in 0.05 M carbonate buffer (pH 8.2) per well. Serial two-fold dilutions of sera or lavages in PBS with 1% BSA and 0.05% Tween 20 were added (100 μl/well), and plates incubated for 2 h at 37° C. After washing, biotin-conjugated rat anti-mouse IgG1 or IgG2a (Pharmingen, Hamburg, Germany) were added to determine IgG subclasses. Plates were incubated for an additional 1 h at 37° C. After four washes, 100 μl of peroxidase-conjugated streptavidin (Pharmingen) was added to cells and plates incubated at 37° C. for 30 min. After four washes, reactions were developed with ABTS in 0.1 M citrate-phosphate buffer (pH 4.35) containing 0.01% H2O2. To determine the concentration of IgG subclasses in serum, standard curves were obtained by coating the wells with an isotype-specific goat anti-mouse IgG, and then by incubating with purified mouse IgG1 or IgG2a antibodies (Dianova, Hamburg, Germany)."}, "[2]": {"tested_on": "primary bone marrow-derived dendritic cells", "experiment": "In vitro stimulation of primary bone marrow-derived murine dendritic cells, surface markers by flow cytometry", "type": "cell-based, BALB/c mice", "conditions": "concentration enhanced to 100 ng/ml (not shown)", "procedure": "FIG. 1: FIGS. 1A-1C show the results for In vitro studies using primary dendritic cells. Primary bone marrow-derived dendritic cell cultures were obtained from BALB/c mice by in vitro maturation of precursors using recombinant GM-CSF (5×10^4 U/ml). Mature dendritic cells were stimulated with 10 ng/ml of E. coli lypopolysaccharide (LPS) or 50 and 100 ng/ml of BPPcysGlyc4armPEG and BPPcysAda, respectively. Then, cells were double-labeled with antibodies specific for CD11c (dendritic cell marker) in combination with anti-CD40, anti-CD54, anti-CD80, anti-CD86, anti-MHC class 1, or anti-MHC class 11 antibodies. The expression of CD40, CD80, CD54, CD86, anti-MHC class 1, and MHC class 11 in CD11c-gated cells were analyzed by flow cytometry.\nExperimental protocol: primary bone marrow-derived dendritic cell cultures were obtained from BALB/c mice following in vitro maturation of precursors in the presence of recombinant GM-CSF (5×10^4 U/ml), according to established protocols. Mature dendritic cells were stimulated with 10 ng/ml of E. coli lypopolysaccharide (LPS) or 5 ng/ml of BPPcysGlyc4armPEG, after 12, 24 and/or 48 h stimulation cells were analyzed by flow cytometry to assess the expression of surface markers which are relevant for their antigen presentation capacity.\nIn order to identify compounds which may have potential as adjuvants for in vivo applications in the vaccinology field, a first in vitro screening based on the used of primary cultures of bone marrow-derived dendritic cells was established. Dendritic cells were selected since they represent the most efficient antigen presenting cells and they play a key role by primary immune responses. In fact, they are the only cell type able to activate resting T cells initiating primary immune responses in vivo. Thus, dendritic cell cultures were treated with the tested moieties or LPS, which was used as a positive control. At different time intervals, samples were taken, stained with fluorescent-labeled antibodies specific for cellular markers critical for the antigen presenting capacities of dendritic cells, and analyzed by flow cytometry.\nTo test the stimulatory capacity of BPPCysAda on maturation and activation of bone marrow-derived DC, immature DC's were stimulated in vitro with BPPCysAda. Surface markers on CD11c+-gated DC were investigated by FACS analysis after 16 or 40 h pre-treatment."}, "[3]": {"tested_on": "peritoneal macrophages from C3H/HeJ mice", "experiment": "Nitrogen monoxide release assay (macrophage activation)", "type": "cell-based", "conditions": "25 mM octylglucoside in first dilution step", "procedure": "NO release of restimulated macrophages using different concentrations (serial dilutions) of the macrophage activator BPPcysGlyc4armPEG as adjuvant. As positive control, the NO release of macrophages in response to serial dilutions of Malp-2 and in response to 4armPEG molecules (negative control) are shown.\nIn brief, peritoneal macrophages from C3H/HeJ mice were used as the macrophage source. They were cultured in 96-well microtiter plates and stimulated simultaneously with rIFN-γ and a serial dilution of macrophage activator. Insofar as necessary (i.e. R-Malp-2/standard), the macrophage activators were dissolved in 25 mM octylglucoside in the first dilution step and then diluted further with medium. After an incubating time of 45-48 hours, the nitrate was reduced with nitrate reductase and the starting substance nitrogen monoxide was determined, as the sum of nitrate and nitrite, using Griess' reagent. 1 unit (U)/ml is defined as the dilution at which half-maximal stimulation takes place."}}, "data": [{"compound": "Nc1ncnc2c1ncn2[C@@H]1O[C@@H]2COP(=O)(O)O[C@H]3[C@@H](O)[C@H](n4cnc5c(N)ncnc54)O[C@@H]3COP(=O)(O)O[C@H]2[C@H]1O", "note": "[c-diAMP]", "values": [{"measurement": "antigen-specific antibody response", "setting": "[1]", "value": "strong antigen-specific antibody response"}]}, {"compound": "MALP-2 [reference compound]", "values": [{"measurement": "differences in the expression of surface markers when concentration enhanced", "setting": "[2]", "value": "No differences"}, {"measurement": "effect of adding a solubilizer (octylglucoside) on macrophage activation", "setting": "[3]", "value": "required"}]}]}
